Several values for one entry are separate records, joined by “and”; a condition that tells them apart may be missing. Equal values may be shown once. Entries after “also recorded” stand apart in the source; their conditions may differ. Read-outs that look alike come from different tables or passages of the source.
Legend:
AgamCSP3 = tested on: AgamCSP3; parameters: method as in PMID 23599217; details: cited from earlier work
H.oblita antennae = tested on: H.oblita antennae; parameters: method as in PMID 21852709; details: cited from earlier work
HoblCSP2 [1] = biological target: T1, HoblCSP2 (Holotrichia oblita, UniProt G9BWQ6); assay: Fluorescence competition assay with 1-NPN, recombinant HoblCSP2; format: binding; details: for binding affinity to HoblCSP2, in words: competition assay
Description: (§1) Fluorescence binding assay was based on method previously described by Yin et al.. Briefly, fifty compounds (Sigma-Aldrich, Germany) with chemical purities ≥97% were tested in a Lengguang 970 CRT spectrofluorimeter (Shanghai Jingmi, China). […] Binding data for each ligand was collected from 3 measurements.
(§2) Figure 3 Fluorescence competition assay of the recombinant HoblCSP1 and HoblCSP2. (A) Binding curves of 1-NPN with HoblCSP1 and HoblCSP2 and their relative Scatchard plots. […] (B) Representative competitive binding curves of the recombinant HoblCSP1 to a series selected ligands (see Table 1). All proteins used were diluted to a fixed concentration of 2 µM, while the concentration of 1-NPN varied with the respective dissociation constant of HoblCSPs/1-NPN. […] Fluorescence intensities are plotted as percent of the initial fluorescence in the absence of ligands. The molecular formulas of representative ligands are shown here as well.

HoblCSP1 [2] = biological target: T2, HoblCSP1 (Holotrichia oblita, UniProt G9BWI4); assay: Fluorescence competition assay with 1-NPN, recombinant HoblCSP1; format: binding; details: for binding affinity to HoblCSP1, in words: competition assay
Description: as §1, §2

HoblCSP2 [3] = biological target: T1, HoblCSP2; assay: Fluorescence binding of 1-NPN to HoblCSP2 (binding curve, Scatchard plot); details: 2 µM protein; 1-NPN 2∼24 µM; read-out: dissociation constant of CSP2/1-NPN
Description: (§3) Fluorescence binding assay was based on method previously described by Yin et al.. Briefly, fifty compounds (Sigma-Aldrich, Germany) with chemical purities ≥97% were tested in a Lengguang 970 CRT spectrofluorimeter (Shanghai Jingmi, China). Assuming the proteins were 100% active, the binding affinities for N-phenyl-1-naphthylamine (1-NPN) were determined by adding aliquots of 1-NPN into a 2 µM protein solution for final concentrations of 2∼24 µM. The dissociation constants of the binding competitors were calculated from IC50 according to Campanacci et al: Ki = [IC50]/(1+[1-NPN]/K(1-NPN)), where [1-NPN] represents the concentration of unbound 1-NPN and K(1-NPN) is the dissociation constant of 1-NPN [46]. Binding data for each ligand was collected from 3 measurements.
(§4) Figure 3 Fluorescence competition assay of the recombinant HoblCSP1 and HoblCSP2. (A) Binding curves of 1-NPN with HoblCSP1 and HoblCSP2 and their relative Scatchard plots. The dissociation constant of HoblCSP1 is 2.53 µM and that of HoblCSP2 is 2.93 µM. (B) Representative competitive binding curves of the recombinant HoblCSP1 to a series selected ligands (see Table 1). […] Fluorescence intensities are plotted as percent of the initial fluorescence in the absence of ligands. […]

HoblCSP1 [4] = biological target: T2, HoblCSP1; assay: Fluorescence binding of 1-NPN to HoblCSP1 (binding curve, Scatchard plot); details: 2 µM protein; 1-NPN 2∼24 µM; read-out: dissociation constant of CSP1/1-NPN
Description: as §3, §4

H.oblita = tested on: H.oblita; parameters: method as in earlier work; details: cited from earlier work
[5] = competition with 1-NPN, 2 µM protein, ligand 0–28 µM, Ki calculated from IC50, 3 measurements, read-out: HoblCSP2 Ki
[6] = competition with 1-NPN, 2 µM protein, ligand 0–28 µM, Ki calculated from IC50, 3 measurements, read-out: HoblCSP1 Ki

T1 sequence (G9BWQ6 entry or part of it): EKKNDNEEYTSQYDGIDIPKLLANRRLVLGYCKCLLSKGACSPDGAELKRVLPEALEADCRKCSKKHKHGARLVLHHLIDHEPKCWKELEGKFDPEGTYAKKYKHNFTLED
T2 sequence (G9BWI4 entry or part of it): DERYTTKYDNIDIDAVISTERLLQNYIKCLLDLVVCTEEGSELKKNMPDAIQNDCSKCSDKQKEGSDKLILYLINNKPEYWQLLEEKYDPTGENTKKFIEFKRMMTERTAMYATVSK

Row | Ki (HoblCSP1 [2]; [6]) [µM] | SMILES | binding affinity to HoblCSP2, in words (HoblCSP2 [1]) | Ki (HoblCSP1 [2]) [µM] | binding affinity to HoblCSP1, in words (HoblCSP1 [2]) | also measured
1 |  | CC(C)=CCC[C@@H](C)CC=O [citronellal] |  |  |  | best ligands for AgamCSP3 (AgamCSP3): best ligands
2 |  | CC(=O)/C=C/C1C(C)=CCCC1(C)C (stereo not drawn) [α-ionone] | highest affinities | 10.5 | highest affinities | electrophysiological response in H.oblita antennae (EAG) (H.oblita antennae): strong electrophysiological responses; Ki (HoblCSP2 [1]): 11.5 µM
3 |  | C=CCc1ccc(O)c(OC)c1 [eugenol] |  | 30 | higher affinities | 
4 |  | COC(=O)c1ccccc1O [methyl salicylate] |  | 47.3 | higher affinities | 
5 | 57.6 | CCCCCCO [hexanol] |  |  |  | Ki (HoblCSP2 [1]; [5]): 60.5 µM
6 |  | OCc1ccccc1 [benzyl alcohol] |  | 34.9 |  | Ki (HoblCSP2 [1]): 54.8 µM
7 | 57 | COC(=O)[C@@H]1CCCN1 [L-Proline methyl ester] | limited affinities |  | limited affinities | 
8 | 43.5 | CCOC(=O)CN [Glycine ethyl ester] | limited affinities |  | limited affinities | Ki (HoblCSP2 [1]; [5]): 39.5 µM
9 | 28.4 | COc1ccccc1 [anisole] |  |  |  | Ki (HoblCSP2 [1]; [5]): 29.5 µM
10 |  | CCCCCCCCC=O [nonanal] |  |  |  | best ligands for AgamCSP3 (AgamCSP3): best ligands
11 | 35.9 | CCCCCCCCO [1-octanol] |  |  |  | Ki (HoblCSP2 [1]; [5]): 40.6 µM
12 |  | CC(C)=CCC/C(C)=C/CO [geraniol] | medium affinities | 29.5 | medium affinities | Ki (HoblCSP2 [1]): 30.2 µM
13 |  | O=Cc1ccccc1 [benzaldehyde] | medium affinities | 23.3 | medium affinities | Ki (HoblCSP2 [1]): 19.5 µM
14 |  | CC(=O)CCC=C(C)C [6-Methyl-5-hepten-2-one] | higher affinities |  |  | Ki (HoblCSP2 [1]): 56.9 µM
15 |  | c1ccc(Nc2cccc3ccccc23)cc1 [1-NPN, N-phenyl-1-naphthylamine] |  |  |  | Kd (HoblCSP2 [3]): 2.93 µM; Kd (HoblCSP1 [4]): 2.53 µM
16 | 34.6 | CC(C)(C)C1CCC(O)CC1 (centres unmarked) [4-tert-butylcyclohexanol] |  |  |  | Ki (HoblCSP2 [1]; [5]): 50.7 µM
17 |  | CCC/C=C/C=O [trans-2-hexenal] | medium affinities | 24.9 | medium affinities | Ki (HoblCSP2 [1]): 25.7 µM
18 |  | O=C/C=C/c1ccccc1 [cinnamaldehyde] | highest affinities | 20.5 | highest affinities | electrophysiological response in H.oblita antennae (EAG) (H.oblita antennae): strong electrophysiological responses; Ki (HoblCSP2 [1]): 17.5 µM; attraction to H.oblita (H.oblita): great attraction
19 |  | CC1=C(/C=C/C(C)=C/C=C/C(C)=C/C=O)C(C)(C)CCC1 [retinal] |  |  |  | best ligands for AgamCSP3 (AgamCSP3): best ligands
20 |  | CC(=O)/C=C/C1=C(C)CCCC1(C)C [β-ionone] | bound most strongly; also recorded: highest affinities | 4.3 | bound most strongly; also recorded: highest affinities; also recorded: best ligand | Ki (HoblCSP2 [1]): 4.47 µM
21 |  | CC/C=C\CCO [cis-3-hexen-1-ol] | higher affinities |  |  | Ki (HoblCSP2 [1]; read-out: HoblCSP2 Ki, competition with 1-NPN, 2 µM protein, ligand 0–28 µM, Ki calculated from IC50, 3 measurements): 47.8 µM and 35.7 µM; Ki (HoblCSP1 [2]; read-out: HoblCSP1 Ki, competition with 1-NPN, 2 µM protein, ligand 0–28 µM, Ki calculated from IC50, 3 measurements): 46.9 µM
22 |  | CC[C@H](C)[C@H](N)C(=O)OC [L-Isoleucine methyl este] | limited affinities |  | limited affinities | 
23 | 29.9 | CCCCC(CC)CO (centres unmarked) [2-Ethy1-1-Hexanol] |  |  |  | Ki (HoblCSP2 [1]; [5]): 32.1 µM
24 | 48.1 | C=CC(O)CCCCC (centres unmarked) [1-Octen-3-ol] |  |  |  | 
25 | 25.4 | C=CC(=C)CCC=C(C)C [myrcene] | medium affinities |  | medium affinities | Ki (HoblCSP2 [1]; [5]): 29.5 µM

Row | SMILES | Ki (HoblCSP1 [2]; [6]) [µM] | binding affinity to HoblCSP2, in words (HoblCSP2 [1]) | Ki (HoblCSP1 [2]) [µM] | binding affinity to HoblCSP1, in words (HoblCSP1 [2]) | also measured
26 | C=C1C2CCC(C2)C1(C)C (centres unmarked) [camphene] | 37.9 | could not bind camphene at all |  | able to bind camphene, albeit with a high Ki value | 
27 | CC1=CC[C@@H](C(C)(C)O)CC1 [α -terpineol] | 46.8 |  |  |  | Ki (HoblCSP2 [1]; [5]): 39.4 µM
28 | COC(=O)c1ccccc1C(=O)OC [dimererhyl phthalate] | 22.3 |  |  | higher affinities | 
